Data: US20100222396A1 (Novartis AG, priority 2009, published 2010)

Columns and labels:
[1] = target: T1, human orexin 1 receptor (hOx1R) (Homo sapiens, UniProt O43613); assay: Radioligand binding assay ([125I]orexin A competition), hOx1R; conditions: CHO or HEK cell membranes, 1 h room temperature
T1 construct: expressed in transfected cells
T1 sequence (O43613 1-425): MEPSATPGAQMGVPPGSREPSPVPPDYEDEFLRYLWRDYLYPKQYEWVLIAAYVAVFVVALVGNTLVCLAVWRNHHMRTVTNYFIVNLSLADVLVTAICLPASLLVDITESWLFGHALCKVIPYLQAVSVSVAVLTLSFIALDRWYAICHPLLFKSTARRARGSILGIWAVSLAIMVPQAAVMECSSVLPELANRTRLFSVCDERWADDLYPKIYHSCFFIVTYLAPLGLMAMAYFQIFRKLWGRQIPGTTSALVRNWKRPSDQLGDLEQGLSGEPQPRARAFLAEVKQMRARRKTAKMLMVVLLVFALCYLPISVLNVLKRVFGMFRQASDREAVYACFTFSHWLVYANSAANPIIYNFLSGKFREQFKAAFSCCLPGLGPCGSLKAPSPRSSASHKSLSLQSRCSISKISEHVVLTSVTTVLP
Description: (§1) For crude cell membrane preparations, cells (CHO, Chinese hamster ovary or HEK, human embryonic kidney) expressing human orexin 1 or human orexin 2 receptors, were washed with HEPES (10 mM, pH 7.5), scraped off the culture plates with the same buffer, and centrifuged at 4° C. for 5 min at 2500×g. The cell pellet was either stored at −80° C. or used directly. Before the experiments, cell membranes were re-suspended in binding assay buffer (10 mM HEPES, 0.5% (w/v) bovine serum albumin, pH 7.5) by homogenisation with a Polytron homogeniser at 50 Hz for 20 s. Cell membranes were also used as made available by commercial providers.
(§2) In initial saturation experiments (to calculate Bmax), cell homogenates (150 μl) were incubated with 25-300 pM of the radioligand ([^125I]orexin A, 50 μl), 8 concentrations in triplicates in the presence or absence Orexin A (1 μM, 50 μl) to define non specific binding. Bound radioactivity was measured, and data were analysed with the program XLFIT or Graphpad Prism. Protein concentration was determined according to the Bradford/BioRad Protein Assay Kit.
(§3) In competition experiments, cell homogenates (150 μl) were incubated in assay buffer (10 mM HEPES, pH 7.5, 0.5% (w/v) bovine serum albumin, 5 mM MgCl2, […], and tween 0.05%) for 1 h at room temperature with about […] of the radioligand ([^125I]orexin A, 2100 Ci/mmole, 50 μl), and with various concentrations of compounds of the invention (50 μl) in triplicates; non-specific binding was determined in the presence of Orexin A (1 μM). Reactions were terminated by vacuum filtration, 3 washes of ice cold wash buffer (Tris-HCl pH 7.4/10 mM, with NaCl 154 mM). Competition data is expressed in Table 1 as Kd [μM].

[2] = target: T2, human orexin 2 receptor (hOx2R) (Homo sapiens, UniProt O43614); assay: Calcium accumulation in cells (FLIPR), antagonism of orexin A, hOx2R; format: cell-based; conditions: for Kd: cells expressing human orexin 2 receptor, IC50 vs orexin A converted by Cheng and Prusoff correction
T2 construct: expressed in transfected cells
T2 sequence (O43614 1-444): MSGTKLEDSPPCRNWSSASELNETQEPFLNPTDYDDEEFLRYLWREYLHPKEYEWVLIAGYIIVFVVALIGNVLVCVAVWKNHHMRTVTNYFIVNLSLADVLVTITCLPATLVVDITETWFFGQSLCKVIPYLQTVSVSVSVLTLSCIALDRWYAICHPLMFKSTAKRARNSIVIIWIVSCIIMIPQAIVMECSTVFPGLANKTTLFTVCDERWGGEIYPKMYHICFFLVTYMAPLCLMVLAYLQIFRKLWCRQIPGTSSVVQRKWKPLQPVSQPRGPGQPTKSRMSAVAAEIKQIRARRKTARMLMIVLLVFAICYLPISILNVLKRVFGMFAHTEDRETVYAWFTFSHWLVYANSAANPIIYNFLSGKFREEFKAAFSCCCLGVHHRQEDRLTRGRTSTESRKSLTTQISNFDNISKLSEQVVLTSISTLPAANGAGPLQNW
Description: (§4) Cells expressing human orexin 1 or human orexin 2 receptors, were seeded at 8,000 cells/well in 384 well black-walled clear bottom, poly-D-lysine coated plates. After 24 h, the medium was removed and cells were washed once with phosphate buffered saline and serum-deprived overnight in assay buffer (130 mM NaCl, 5.4 mM KCl, 1.8 mM CaCl2, 0.8 mM MgSO4, 0.9 mM NaH2PO4, 25 mM glucose, 20 mM HEPES, pH 7.4) containing bovine serum albumin (1% w/v).
(§5) On the day of the experiment, the cells seeded in black plates were treated with assay buffer containing the Ca^2+ sensitive fluorescent dye Fluo-4-AM (2 μM), and probenecid (0.1 mM). After 1 h plates were washed twice with, and resuspended in, assay buffer containing probenecid (0.1 mM) using a multi plate washer. The plates were placed into a FLIPR II (Fluorometric Imaging Plate Reader, Molecular Devices, Sunnyvale, Calif., USA) and baseline fluorescence (fluorescence light units, FLU) was measured (5 measurements, 2 S each; laser excitation 488 nm at 0.6-1 W, CCD camera exposure 0.4 s) before addition of buffer alone (basal) or containing test compounds (either compound of formula I alone, agonist alone or agonist in the presence of various concentrations of compounds of formula I). Fluorescence measurements were then continued every 1 S for 120 S followed by every 4 S for 240 S.
(§6) The measurements were typically made in two sequences:
(§7) Compounds of formula I were tested usually in a concentration range from 10^−9 M to 10^−5 M.
(§8) In the second round, performed one hour later (to allow for equilibration), Orexin A was tested either in the absence (calibration curves, Orexin A agonist controls) or in the presence of compounds of formula I to determine antagonism.

[3] = target: T1, human orexin 1 receptor (hOx1R); assay: Calcium accumulation in cells (FLIPR), antagonism of orexin A, hOx1R; format: cell-based; conditions: for Kd: cells expressing human orexin 1 receptor, IC50 vs orexin A converted by Cheng and Prusoff correction; for inhibition at 10 µM: measured at a concentration of 10 μM of compound (cells marked ^a)
Description: as §4, §5, §6, §7, §8

[4] = target: T2, human orexin 2 receptor (hOx2R); assay: Radioligand binding assay ([125I]orexin A competition), hOx2R; conditions: CHO or HEK cell membranes, 1 h room temperature
Description: as §1, §2, §3

For CN(C(=O)c1ccc2c(c1)OCO2)[C@H](CCNC(=O)c1ccc2c(c1)OCO2)Cc1ccccc1 [Example 62, Benzo[1,3]dioxole-5-carboxylic acid {(S)-3-[(benzo[1,3]dioxole-5-carbonyl)-amino]-1-benzyl-propyl}-methyl-amide], the Kd [1] was 222 nM, the Kd [2] was 22 nM and the Kd [3] was 872 nM. The Kd [4] was 47 nM.
CN(C(=O)c1ccc2c(c1)OCO2)[C@H](CCNC(=O)c1ccccn1)Cc1ccc(Cl)cc1 [Example 25, Pyridine-2-carboxylic acid [(S)-3-[(benzo[1,3]dioxole-5-carbonyl)-methyl-amino]-4-(4-chloro-phenyl)-butyl]-amide] was tested, and the Kd [1] was 2220 nM, the Kd [2] was 36 nM and the Kd [3] was 1000 nM. The Kd [4] was 308 nM.
For CCCN(C(=O)c1cccc2c1OCO2)[C@H](CCNC(=O)c1ccccn1)Cc1ccccc1 [Example 59, Pyridine-2-carboxylic acid {(S)-3-[(benzo[1,3]dioxole-4-carbonyl)-propyl-amino]-4-phenyl-butyl}-amide], the Kd [1] was 3630 nM, the Kd [2] was 562 nM and the Kd [3] was 2040 nM. The Kd [4] was 3620 nM.
CN1CCc2cc(C(=O)N(C)[C@H](CCNC(=O)c3ccccn3)Cc3ccccc3)ccc21 [Example 55, 1-Methyl-2,3-dihydro-1H-indole-5-carboxylic acid {(S)-1-benzyl-3-[(pyridine-2-carbonyl)-amino]-propyl}-methyl-amide] showed a Kd [1] of 75 nM, a Kd [2] of 1290 nM and a Kd [3] of 1640 nM. The Kd [4] was 1760 nM.
In the case of CN(C(=O)c1ccccc1)[C@H](CCNC(=O)c1cccc2c1OCO2)Cc1ccccc1 [Example 32, Benzo[1,3]dioxole-4-carboxylic acid [(S)-3-(benzoyl-methyl-amino)-4-phenyl-butyl]-amide], the Kd [1] is reported as > 10000 nM, the Kd [2] is reported as 67 nM and the inhibition at 10 µM [3] is reported as 24%. It also gave a Kd [4] of 435 nM.
In the case of CN(C(=O)c1ccc2cc[nH]c2c1)[C@H](CCNC(=O)c1ccccn1)Cc1ccccc1 [Example 64, 1H-Indole-6-carboxylic acid {(S)-1-benzyl-3-[(pyridine-2-carbonyl)-amino]-propyl}-methyl-amide], the Kd [1] is reported as 540 nM, the Kd [2] is reported as 1070 nM and the Kd [3] is reported as 1010 nM. The Kd [4] was 6860 nM.
For Cc1cccc(C(=O)N(C)[C@H](CCNC(=O)c2cccn2C)Cc2ccccc2)c1 [Example 119, 1-Methyl-1H-pyrrole-2-carboxylic acid {(8)-3-[methyl-(3-methyl-benzoyl)-amino]-4-phenyl-butyl}-amide], the Kd [1] was 249 nM, the Kd [2] was 4 nM and the Kd [3] was 534 nM. It also gave a Kd [4] of 14 nM.
In the case of [2H]C([2H])(c1ccccc1)C(CCNC(=O)c1ccccn1)N(C)C(=O)c1ccc2c(c1)OCO2 (centres unmarked) [Example 110, Pyridine-2-carboxylic acid {3-[(benzo[1,3]dioxole-5-carbonyl)-methyl-amino]-4,4-dideutero-4-phenyl-butyl}-amide], the Kd [1] is reported as 1380 nM and the Kd [3] is reported as 1730 nM.
With CN(C(=O)c1cccc2c1OCO2)[C@H](CCNC(=O)c1ccccn1)Cc1ccc(F)cc1 [Example 63, Pyridine-2-carboxylic acid [(S)-3-[(benzo[1,3]dioxole-4-carbonyl)-methyl-amino]-4-(4-fluoro-phenyl)-butyl]-amide] the Kd [1] was > 10000 nM, the inhibition at 10 µM ([2]; measured at a concentration of 10 μM of compound (cells marked ^a)) was 24% and the inhibition at 10 µM [3] was 0%. For the same molecule, the Kd [4] was 5900 nM.
CN(C(=O)c1cc(C(F)(F)F)cc(C(F)(F)F)c1)[C@@H](CCNC(=O)c1ccccn1)Cc1ccccc1 [Example 74, Pyridine-2-carboxylic acid {(R)-3-[(3,5-bis-trifluoromethyl-benzoyl)-methyl-amino]-4-phenyl-butyl}-amide] was tested, and the Kd [1] was > 10000 nM, the Kd [2] was 1610 nM and the Kd [3] was 3260 nM. The Kd [4] was > 10000 nM.
For CN(C(=O)c1cc(C(F)(F)F)cc(C(F)(F)F)c1)[C@H](CCNC(=O)c1ccccn1)Cc1ccccc1 [Example 5, Pyridine-2-carboxylic acid {(S)-3-[(3,5-bis-trifluoromethyl-benzoyl)-methyl-amino]-4-phenyl-butyl}-amide], the Kd [1] was 999 nM, the Kd [2] was 8 nM and the Kd [3] was 511 nM. It also gave a Kd [4] of 18 nM.
CN(C(=O)c1ccc2c(c1)OCO2)[C@@H](CCNC(=O)c1ccccn1)Cc1ccccc1 [Example 47, Pyridine-2-carboxylic acid {(R)-3-[(benzo[1,3]dioxole-5-carbonyl)-methyl-amino]-4-phenyl-butyl}-amide] showed a Kd [1] of 12300 nM and a Kd [3] of 6290 nM.
Work on COc1cc(Cl)cc(C(=O)N(C)[C@H](CCNC(=O)c2cccn2C)Cc2ccccc2)c1 [Example 106, 1-Methyl-1H-pyrrole-2-carboxylic acid {(S)-3-[(3-chloro-5-methoxy-benzoyl)-methyl-amino]-4-phenyl-butyl}-amide] yielded a Kd [1] of 50 nM, a Kd [3] of 84 nM and a Kd [4] of 3 nM.
For CN(C(=O)c1cccc2c1OCO2)[C@@H](CCNC(=O)c1ccccn1)Cc1ccccc1 [Example 61, Pyridine-2-carboxylic acid {(R)-3-[(benzo[1,3]-dioxole-4-carbonyl)-methyl-amino]-4-phenyl-butyl}-amide], the Kd [1] was 4560 nM and the Kd [3] was 3830 nM.
Work on CN(C(=O)c1cccc2c1OCO2)[C@H](CCNC(=O)c1ccccn1)Cc1ccccc1 [Example 30, Pyridine-2-carboxylic acid {(S)-3-[(benzo[1,3]dioxole-4-carbonyl)-methyl-amino]-4-phenyl-butyl}-amide] yielded a Kd [1] of 1100 nM and a Kd [3] of 2190 nM.
With CN(C(=O)c1ccc2c(c1)OCO2)[C@@H](Cc1ccccc1)C(C)(C)CNC(=O)c1ccccn1 [Example 113, Pyridine-2-carboxylic acid {(S)-3-[(benzo[1,3]dioxole-5-carbonyl)-methyl-amino]-2,2-dimethyl-4-phenyl-butyl}-amide] the Kd [2] was 497 nM, the inhibition at 10 µM [3] was 24% and the Kd [4] was 531 nM.
Work on CN(C(=O)c1ccc2c(c1)OCO2)[C@H](CCNC(=O)c1ccccn1)Cc1ccccc1 [Example 1, Pyridine-2-carboxylic acid {(S)-3-[(benzo[1,3]dioxole-5-carbonyl)-methyl-amino]-4-phenyl-butyl}-amide] yielded a Kd [1] of 179 nM and a Kd [3] of 228 nM.
